Assay [1] deals with T1, glutathione S-transferase (GST)-linked full-length human Syk protein (Homo sapiens, UniProt P43405).
T1 construct: glutathione S-transferase (GST)-linked full-length human Syk protein; purchased Carna Biosciences; host or cells: Baculovirus expression system
Briefly: Syk enzyme assay. It is filed as biochemical. Conditions: 0.83 nM Syk, time-resolved fluorescence; read-out: IC50 of Syk-inhibitory activity. The essentials: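 Phosphotyrosine on a biotin-peptide substrate (0.5 μM) was read by time-resolved fluorescence at 615 and 665 nm with Eu-anti-pTyr antibody and APC-streptavidin after 1 h EDTA stop.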

The subject of assay [2] is THP-1 cells (TNFα secretion on human IgG-coated plate). Briefly: TNFα generation assay. It is filed as cell-based. The settings on record: IFN-γ differentiated THP-1 cells, 7 hours, AlphaLISA, read-out: IC50 of TNFα generation inhibitory activity. An outline of the steps: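 Secreted TNFα was measured by AlphaLISA after 7 h of culture on human IgG-coated wells (coating at 10 μg/ml), with 5×10^4 cells/well. Before plating, the cells had been treated with compound for 30 min at room temperature. The cells were macrophage-like THP-1, produced by a 2-day exposure to 10 ng/ml IFN-γ.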
(Bead proximity is the source of the signal in Alpha formats.)

Assay [3] concerns THP-1 cells (phagocytosis of opsonized Escherichia coli). In words: Antibody-dependent phagocytosis assay. The assay is classed as cell-based. The settings on record: Homo sapiens; IFNγ differentiated THP-1 cells, opsonized pHrodo Escherichia coli, 3 hours; read-out: IC50 upon phagocytosis inhibition. An outline of the steps: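 Read-out was imaging-based quantification of pHrodo-labeled, antibody-opsonized E. coli taken up by Calcein AM-stained viable cells after 3 h at 37° C. The cells were IFNγ-differentiated THP-1 macrophages (10 ng/ml, 2 days), preincubated with compound for 30 min at room temperature.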

As to `CC[C@@H](Nc1nc(Nc2cnc(C)c(-n3nccn3)c2)c(C(N)=O)cc1F)[C@H](C)N` [Example 2-31, 6-(((2S,3R)-2-aminopentan-3-yl)amino)-5-fluoro-2-((6-methyl-5-(2H-1,2,3-triazol-2-yl)pyridin-3-yl)amino)nicotinamide], the IC50 is under 10 nM in assay [1], 65 to 130 nM in assay [2] and under 1000 nM in assay [3].
Take `CCC[C@@H](Nc1nc(Nc2cccc3c2cnn3CC)c(C(N)=O)cc1F)[C@H](C)N` [Example 2-96, 6-(((2S,3R)-2-aminohexan-3-yl)amino)-2-((1-ethyl-1H-indazol-4-yl)amino)-5-fluoronicotinamide]: the IC50 was under 10 nM in assay [1], 130 to 200 nM in assay [2] and under 1000 nM in assay [3].
As to `CC[C@@H](Nc1nc(Nc2ccc3c(c2)c(OC(F)F)nn3C)c(C(N)=O)cc1F)[C@H](C)N` [Example 2-170, 6-(((2S,3R)-2-aminopentan-3-yl)amino)-2-((3-(difluoromethoxy)-1-methyl-1H-indazol-5-yl)amino)-5-fluoronicotinamide], the values for the IC50 in assay [1], in assay [2] and in assay [3] were under 10 nM, 130 to 200 nM and 1000 to 3000 nM, respectively.
In the case of `CCn1ncc2c(Nc3nc(N[C@@H]4CCCC[C@@H]4N)c(F)cc3C(N)=O)cncc21` [Example 2-316], the IC50 in assay [1] is under 10 nM; in assay [2], 65 to 130 nM; in assay [3], under 1000 nM.
As to `CC[C@@H](Nc1nc(Nc2cnc(C)c(C)c2)c(C(N)=O)cc1F)[C@H](C)N` [Example 2-17, 6-(((2S,3R)-2-aminopentan-3-yl)amino)-2-((5,6-dimethylpyridin-3-yl)amino)-5-fluoronicotinamide], the IC50 in assay [1] is under 10 nM; in assay [2], 65 to 130 nM; in assay [3], under 1000 nM.
`Cc1ncc(Nc2nc(N[C@H](c3ccccc3F)[C@H](C)N)c(F)cc2C(N)=O)cc1-n1nccn1` [Example 2-409, 6-(((1R,2S)-2-amino-1-(2-fluorophenyl)propyl)amino)-5-fluoro-2-((6-methyl-5-(2H-1,2,3-triazol-2-yl)pyridin-3-yl)amino)nicotinamide]: the IC50 in assay [1] is under 10 nM; in assay [2], 130 to 200 nM; in assay [3] it was 1000 to 3000 nM.
On the same counts, the results for `COc1ncc(Nc2nc(N[C@@H]3CCOC[C@@H]3N)c(F)cc2C(N)=O)cc1-n1nccn1` [Example 2-216, 6-(((3R,4R)-3-aminotetrahydro-2H-pyran-4-yl)amino)-5-fluoro-2-((6-methoxy-5-(2H-1,2,3-triazol-2-yl)pyridin-3-yl)amino)nicotinamide] are 10 to 50 nM, 130 to 200 nM and 1000 to 3000 nM.
On to `Cc1cccc(Nc2nc(N[C@H](C3CC3)[C@H](C)N)c(F)cc2C(N)=O)c1` [Example 2-44, 6-(((1R,2S)-2-amino-1-cyclopropylpropyl)amino)-5-fluoro-2-(m-tolylamino)nicotinamide], for which the IC50 was under 10 nM in assay [1], 65 to 130 nM in assay [2] and under 1000 nM in assay [3].
In the same order, the values of `NC(=O)c1cc(F)c(N[C@@H]2CCOC[C@@H]2N)nc1Nc1cccc2c1cnn2CC(F)F` [Example 2-332, 6-(((3R,4R)-3-aminotetrahydro-2H-pyran-4-yl)amino)-2-((1-(2,2-difluoroethyl)-1H-indazol-4-yl)amino)-5-fluoronicotinamide] are under 10 nM, 65 to 130 nM and under 1000 nM.
On to `CC[C@H](N)[C@@H](CC)Nc1nc(Nc2cnc(C)c(C)c2)c(C(N)=O)cc1F` [Example 2-36, 6-(((3R,4S)-4-aminohexan-3-yl)amino) 2-((5,6-dimethylpyridin-3-yl)amino)-5-fluoronicotinamide], for which the IC50 lay within 10 to 50 nM in assay [1], 130 to 200 nM in assay [2] and 1000 to 3000 nM in assay [3].
With `CC(C)C[C@@H](Nc1nc(Nc2ccnc(N3CCOCC3)c2F)c(C(N)=O)cc1F)[C@H](C)N` [Example 2-235, 6-(((2S,3R)-2-amino-5-methylhexan-3-yl)amino)-5-fluoro-2-((3-fluoro-2-morpholinopyridin-4-yl)amino)nicotinamide], the values for the IC50 in assay [1], in assay [2] and in assay [3] were under 10 nM, 65 to 130 nM and under 1000 nM, respectively.
As to `CC[C@@H](Nc1nc(Nc2cccc3c2cnn3CC(F)F)c(C(N)=O)cc1F)[C@H](C)N` [Example 2-23, 6-(((2S,3R)-2-aminopentan-3-yl)amino)-2-((1-(2,2-difluoroethyl)-1H-indazol-4-yl)amino)-5-fluoronicotinamide], the IC50 is under 10 nM in assay [1], 65 to 130 nM in assay [2] and under 1000 nM in assay [3].
For `CC[C@@H](Nc1nc(Nc2cc(F)cc3c2cnn3CCOC)c(C(N)=O)cc1F)[C@H](C)N` [Example 2-376, 6-(((2S,3R)-2-aminopentan-3-yl)amino)-5-fluoro-2-((6-fluoro-1-(2-methoxyethyl)-1H-indazol-4-yl)amino)nicotinamide], the IC50 in assay [1] is under 10 nM; in assay [2], 65 to 130 nM; in assay [3], under 1000 nM.
On the same counts, the results for `CCC[C@@H](Nc1nc(Nc2ccc3c(c2)c(OC)nn3CCOC)c(C(N)=O)cc1F)[C@H](C)N` [Example 2-126, 6-(((2S,3R)-2-aminohexan-3-yl)amino)-5-fluoro-2-((3-methoxy-1-(2-methoxyethyl)-1H-indazol-5-yl)amino)nicotinamide] are under 10 nM, 65 to 130 nM and under 1000 nM.
Turning to `CCn1nc(OC)c2cc(Nc3nc(N[C@H](CC(C)C)[C@H](C)N)c(F)cc3C(N)=O)ccc21` [Example 2-51, 6-(((2S,3R)-2-amino-5-methylhexan-3-yl)amino)-2-((1-ethyl-3-methoxy-1H-indazol-5-yl)amino)-5-fluoronicotinamide], the IC50 in assay [1] is under 10 nM; in assay [2] it was 130 to 200 nM; in assay [3], under 1000 nM.
`COC[C@@H](Nc1nc(Nc2ccc3c(c2)c(OC)nn3C)c(C(N)=O)cc1F)[C@H](C)N` [Example 2-121, 6-(((2S,3S)-3-amino-1-methoxybutan-2-yl)amino)-5-fluoro-2-((3-methoxy-1-methyl-1H-indazol-5-yl)amino)nicotinamide]: the figures for the IC50 in assay [1], in assay [2] and in assay [3] were under 10 nM, 130 to 200 nM and 1000 to 3000 nM, respectively.
On the same counts, the results for `CC[C@H](N)[C@@H](C)Nc1nc(Nc2cnc(C)c(F)c2)c(C(N)=O)cc1F` [Example 2-270, 6-(((2R,3S)-3-aminopentan-2-yl)amino)-5-fluoro-2-((5-fluoro-6-methylpyridin-3-yl)amino)nicotinamide] are 10 to 50 nM, 65 to 130 nM and 1000 to 3000 nM.
On the same counts, the results for `COCCn1ncc2c(Nc3nc(N[C@@H]4CCOC[C@@H]4N)c(F)cc3C(N)=O)cc(F)cc21` [Example 2-375, 6-(((3R,4R)-3-aminotetrahydro-2H-pyran-4-yl)amino)-5-fluoro-2-((6-fluoro-1-(2-methoxyethyl)-1H-indazol-4-yl)amino)nicotinamide] are under 10 nM, 65 to 130 nM and 1000 to 3000 nM.
`Cc1ncc(Nc2nc(N[C@H](C3CCC3)[C@H](C)N)c(F)cc2C(N)=O)cc1F` [Example 2-221, 6-(((1R,2S)-2-amino-1-cyclobutylpropyl)amino)-5-fluoro-2-((5-fluoro-6-methylpyridin-3-yl)amino)nicotinamide]: the IC50 in assay [1] was under 10 nM; in assay [2], 130 to 200 nM; in assay [3] it was under 1000 nM.
In the same order, the values of `Cc1cncc(Nc2nc(N[C@@H]3CCOC[C@@H]3N)c(F)cc2C(N)=O)c1` [Example 2-218, 6-(((3R,4R)-3-aminotetrahydro-2H-pyran-4-yl)amino)-5-fluoro-2-((5-methylpyridin-3-yl)amino)nicotinamide] are 10 to 50 nM, 65 to 130 nM and 1000 to 3000 nM.
On to `CCn1ncc2c(Nc3nc(N[C@H](C4CC4)[C@H](C)N)c(F)cc3C(N)=O)cncc21` [Example 2-320, 6-(((1R,2S)-2-amino-1-cyclopropylpropyl)amino)-2-((1-ethyl-1H-pyrazolo[3,4-c]pyridin-4-yl)amino)-5-fluoronicotinamide], for which the IC50 in assay [1] is under 10 nM; in assay [2], 65 to 130 nM; in assay [3], under 1000 nM.
`COc1ncc(Nc2nc(N[C@H](C3CCC3)[C@H](C)N)c(F)cc2C(N)=O)cc1-n1nccn1` [Example 2-114, 6-(((1R,2S)-2-amino-1-cyclobutylpropyl)amino)-5-fluoro-2-((6-methoxy-5-(2H-1,2,3-triazol-2-yl)pyridin-3-yl)amino)nicotinamide]: the IC50 in assay [1] was under 10 nM; in assay [2], 130 to 200 nM; in assay [3], 1000 to 3000 nM.
On the same counts, the results for `CC(C)C[C@@H](Nc1nc(Nc2cccc3c2cnn3CC(F)F)c(C(N)=O)cc1F)[C@H](C)N` [Example 2-22, 6-(((2S,3R)-2-amino-5-methylhexan-3-yl)amino)-2-((1-(2,2-difluoroethyl)-1H-indazol-4-yl)amino)-5-fluoronicotinamide] are under 10 nM, 130 to 200 nM and under 1000 nM.
